Where two headings read alike, the source gives them in different places.
Columns and labels:
[1] = LogD7.4 by shake-flask method (n-octanol/PBS); type: physicochemical; conditions: ^203Pb-labeled compound; n-octanol/PBS pH 7.4; n = 3
Method: Distribution coefficients (LogD7.4) were determined by the shake-flask method. A sample containing the ^203Pb-labeled compound (~1 MBq) was added to a vial containing PBS (600 µL, pH 7.4) and n-octanol (600 µL). The vial was vortexed vigorously and then centrifuged at 10,000 rpm for 10 min for phase separation. Samples (100 µL) of the n-octanol and aqueous phases were taken and measured by a gamma counter. The LogD7.4 value was calculated by using the equation: LogD7.4 = log [(counts in the n-octanol phase)/(counts in the aqueous phase)]. Measurements were performed in triplicate.

[2] = In vitro stability in PBS; type: physicochemical; conditions: 37 °C, n = 1
Method: The ^203Pb-labeled compounds (~ 2 MBq) or the ^212Pb-labeled compounds (~ 70 kBq) were incubated in 300 µL of phosphate buffered saline (PBS; 0.1 M, pH 7.4) or mouse serum at 37 °C. The stability of the radiolabeled peptides was monitored at 1, 4, and 24 h post-incubation. The samples in PBS were directly analyzed by radio-HPLC without any pretreatment. However, samples of mouse serum were mixed with an equal volume of acetonitrile to precipitate the proteins. The solution was centrifuged twice for 5 min at 13,000 rpm, and the supernatant was analyzed by radio-HPLC using Method 1 for lead-203 and Method 2 for lead-212.

[3] = Biodistribution study with lead-212; type: in vivo, mouse; conditions: mouse, intravenous; for tissue uptake at 1 h: 1 h p.i.; for tissue uptake at 4 h: 4 h p.i.
Method: (§1) Six-week-old male Balb/c nu/nu-specific and opportunistic pathogen-tree (SOPF) mice (Janvier Labs, Le Genest-Saint-Isle, France) were housed in individually ventilated cages, with four mice per cage. Upon arrival, the mice were acclimated for 1 week with access to food and water ad libitum. Mice were subcutaneously inoculated on the right shoulder with NCI-H69 cells (5 × 10^6 cells suspended in 100 μL of 1/3 Matrigel (Corning Inc.; Corning, NY, USA) and 2/3 Hank’s balanced salt solution (Gibco; Paisley, UK). NCI-H69 xenografts were allowed to grow for 3 weeks. Tumor sizes were 391 ± 173 mm^3 at the start of the studies.
(§2) Biodistribution studies were performed to determine tumor and organ uptake of [^212Pb]Pb-DOTAM-TATE, [^212Pb]Pb-eSOMA-01, and [^212Pb]Pb-eSOMA-02. Animals (n = 4 for each time point) were injected intravenously (i.v.) with an average of 100 kBq/0.5 nmol. At 3 selected time points (1, 4, and 24 h) p.i., blood was collected via retro-orbital puncture under isoflurane/O2 anesthesia, after which the mice were sacrificed via cervical dislocation. The tumor and organs of interest (heart, lungs, liver, spleen, stomach, large intestine, small intestine, pancreas, kidneys, muscle, skin, and bone) were excised, washed in PBS, and blotted dry. To confirm receptor specificity of radioligand uptake, mice (n = 3) were co-injected with an excess (25 nmol) of the respective unlabeled peptide, and uptake in the organs of interest was determined at 24 h p.i. To determine the total injected radioactivity per animal, a calibration curve with lead-212 was established using the gamma counter. The percentage of injected dose per gram (% ID/g) was determined for each tissue sample and corrected for both the injected volume and the % ID present at the injection site (the tail).

[4] = tested on: H69-xenograft Balb/c nu/nu mice; assay: Biodistribution study with lead-212; type: in vivo, mouse; conditions: 1 h p.i.; n = 4
Method: as §1, §2

[5] = blood, 100 kBq, n = 4, read-out: Blood uptake
[6] = intestines, 100 kBq, n = 4, read-out: Intestines uptake
[7] = kidneys, 100 kBq, n = 4, read-out: Kidneys uptake
[8] = liver, 100 kBq, n = 4, read-out: Liver uptake
[9] = lungs, 100 kBq, n = 4, read-out: Lungs uptake
[10] = pancreas, 100 kBq, n = 4, read-out: Pancreas uptake
[11] = spleen, 100 kBq, n = 4, read-out: Spleen uptake
[12] = stomach, 100 kBq, n = 4, read-out: Stomach uptake
[13] = tumor, 100 kBq, n = 4, read-out: Tumor uptake

## C[C@@H](O)[C@H](NC(=O)[C@@H]1CSSC[C@H](NC(=O)[C@@H](Cc2ccccc2)NC(=S)Nc2ccc(CC3CN(CC(N)=O)CCN(CC(N)=O)CCN(CC(N)=O)CCN3CC(N)=O)cc2)C(=O)N[C@@H](Cc2ccc(O)cc2)C(=O)N[C@H](Cc2c[nH]c3ccccc23)C(=O)N[C@@H](CCCCN)C(=O)N[C@@H]([C@@H](C)O)C(=O)N1)C(=O)O (stereo partly drawn) [[^203Pb]Pb-eSOMA-03, metal not drawn]
[1]
  logD: -1.36 ± 0.06
[2]; ^203Pb-labeled, 1 h
  Stability in PBS, intact labeled ligand: 70%
[2]; ^203Pb-labeled, 4 h
  Stability in PBS, intact labeled ligand: 40%
[2]; ^203Pb-labeled, 24 h
  Stability in PBS, intact labeled ligand: 15%
[2]; phosphate buffered saline, pH 7.4, ^203Pb-labeled, 1 h, read-out: Stability in PBS, intact labeled ligand
  remaining at 1 h: 70%
[2]; phosphate buffered saline, pH 7.4, ^203Pb-labeled, 24 h, read-out: Stability in PBS, intact labeled ligand
  remaining at 24 h: 15%

## C[C@@H](O)[C@H](NC(=O)[C@@H]1CSSC[C@H](NC(=O)[C@@H](Cc2ccccc2)NC(=O)CN2CCC(NC(=O)CN3CCN(CC(N)=O)CCN(CC(N)=O)CCN(CC(N)=O)CC3)CC2)C(=O)N[C@@H](Cc2ccc(O)cc2)C(=O)N[C@H](Cc2c[nH]c3ccccc23)C(=O)N[C@@H](CCCCN)C(=O)N[C@@H]([C@@H](C)O)C(=O)N1)C(=O)O [[^212Pb]Pb-eSOMA-02, metal not drawn]
[2]; ^212Pb-labeled, 1 h
  Stability in PBS, intact labeled ligand: 97%
[2]; ^212Pb-labeled, 4 h
  Stability in PBS, intact labeled ligand: 95%
[2]; ^212Pb-labeled, 24 h
  Stability in PBS, intact labeled ligand: 95%
[3]; [5]
  tissue uptake at 1 h: 1.44 ± 0.24 %ID/g
  tissue uptake at 4 h: 0.01 ± 0.02 %ID/g
[3]; bone, 100 kBq, n = 4, read-out: Bones uptake
  tissue uptake at 4 h: 0.03 ± 0.05 %ID/g
[3]; heart, 100 kBq, n = 4, read-out: Heart uptake
  tissue uptake at 1 h: 0.54 ± 0.21 %ID/g
[3]; [6]
  tissue uptake at 1 h: 2.24 ± 1.05 %ID/g
  tissue uptake at 4 h: 0.67 ± 0.21 %ID/g
[3]; intestines, 100 kBq, 24 h p.i., n = 4, read-out: Intestines uptake
  tissue uptake at 24 h: 0.13 ± 0.09 %ID/g
[3]; intestines, 24 h block: co-injection of excess (25 nmol) unlabeled peptide, read-out: Intestines uptake
  tissue uptake at 24 h: 0.03 ± 0.03 %ID/g
[3]; [7]
  tissue uptake at 1 h: 81.1 ± 14.3 %ID/g
  tissue uptake at 4 h: 50.5 ± 3.24 %ID/g
[3]; kidneys, 100 kBq, 24 h p.i., n = 4, read-out: Kidneys uptake
  tissue uptake at 24 h: 28.2 ± 9.41 %ID/g
[3]; kidneys, 24 h block: co-injection of excess (25 nmol) unlabeled peptide, read-out: Kidneys uptake
  tissue uptake at 24 h: 37.9 ± 9.17 %ID/g
[3]; [8]
  tissue uptake at 1 h: 3.96 ± 0.37 %ID/g
  tissue uptake at 4 h: 3.09 ± 0.7 %ID/g
[3]; liver, 100 kBq, 24 h p.i., n = 4, read-out: Liver uptake
  tissue uptake at 24 h: 1.44 ± 0.94 %ID/g
[3]; liver, 24 h block: co-injection of excess (25 nmol) unlabeled peptide, read-out: Liver uptake
  tissue uptake at 24 h: 0.83 ± 0.87 %ID/g
[3]; [9]
  tissue uptake at 1 h: 3.49 ± 0.7 %ID/g
  tissue uptake at 4 h: 0.99 ± 0.24 %ID/g
[3]; lungs, 100 kBq, 24 h p.i., n = 4, read-out: Lungs uptake
  tissue uptake at 24 h: 0.2 ± 0.21 %ID/g
[3]; [10]
  tissue uptake at 1 h: 6.41 ± 0.7 %ID/g
  tissue uptake at 4 h: 1.25 ± 0.27 %ID/g
[3]; pancreas, 100 kBq, 24 h p.i., n = 4, read-out: Pancreas uptake
  tissue uptake at 24 h: 0.41 ± 0.37 %ID/g
[3]; skin, 100 kBq, n = 4, read-out: Skin uptake
  tissue uptake at 4 h: 0.25 ± 0.33 %ID/g
[3]; [11]
  tissue uptake at 1 h: 0.59 ± 0.06 %ID/g
  tissue uptake at 4 h: 0.39 ± 0.27 %ID/g
[3]; [12]
  tissue uptake at 1 h: 3.74 ± 0.66 %ID/g
  tissue uptake at 4 h: 1.17 ± 0.35 %ID/g
[3]; stomach, 100 kBq, 24 h p.i., n = 4, read-out: Stomach uptake
  tissue uptake at 24 h: 0.36 ± 0.27 %ID/g
[3]; stomach, 24 h block: co-injection of excess (25 nmol) unlabeled peptide, read-out: Stomach uptake
  tissue uptake at 24 h: 0.14 ± 0.28 %ID/g
[3]; [13]
  tissue uptake at 1 h: 7.93 ± 2.14 %ID/g
  tissue uptake at 4 h: 7.45 ± 0.29 %ID/g
[3]; tumor, 100 kBq, 24 h p.i., n = 4, read-out: Tumor uptake
  tissue uptake at 24 h: 1.02 ± 0.09 %ID/g
[4]
  Stomach uptake: 3.7 % ID/g

Reference: PMC10384862, “[^212Pb]Pb-eSOMA-01: A Promising Radioligand for Targeted Alpha Therapy of Neuroendocrine Tumors” (Pharmaceuticals, 2023)
